Measured values as given in PubChem BioAssay AID248 (DTP/NCI, 2004).
Values joined by “and” are separate entries in the source; they are usually repeats but may differ in a detail not shown here. Identical values can stand only once. Toxic doses and inconclusive results are not listed. Cut-off read from the data, not from the text of the source: active = T/C of 150% or more; inactive = T/C below 125%.

Test system: L1210 leukemia ip in BDF1 mice, survival T/C
Test: NCI In Vivo Anticancer Drug Screen. Data for tumor model L1210 Leukemia (intraperitoneal) in B6D2F1 (BDF1) mice
Conditions: endpoint: mean survival time, higher = longer survival
In short: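 Tumor was transplanted into mice, which were then dosed with test compound or vehicle alone. Survival was recorded for each group, and the treated figure was expressed relative to the control figure.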

[1] = dose: 100.0 mg/kg/injection, schedule: Q04DX002 (ip), vehicle: saline with Tween-80
[2] = dose: 200.0 mg/kg/injection, schedule: Q04DX002 (ip), vehicle: saline with Tween-80
[3] = dose: 100.0 mg/kg/injection, schedule: Q01DX009 (ip), vehicle: Klucel (hydroxypropylcellulose) (HPC)
[4] = dose: 100.0 mg/kg/injection, schedule: Q04DX003 (ip), vehicle: Klucel (hydroxypropylcellulose) (HPC)
[5] = dose: 200.0 mg/kg/injection, schedule: Q04DX003 (ip), vehicle: Klucel (hydroxypropylcellulose) (HPC)
[6] = dose: 400.0 mg/kg/injection, schedule: Q04DX003 (ip), vehicle: Klucel (hydroxypropylcellulose) (HPC)
[7] = dose: 100.0 mg/kg/injection, schedule: Q04DX003 (ip), vehicle: saline with Tween-80
[8] = dose: 200.0 mg/kg/injection, schedule: Q04DX003 (ip), vehicle: saline with Tween-80
[9] = dose: 400.0 mg/kg/injection, schedule: Q04DX003 (ip), vehicle: saline with Tween-80
[10] = dose: 100.0 mg/kg/injection, schedule: Q01DX009 (ip), vehicle: saline with Tween-80

Measured: T/C

S=P(c1ccccc1)(N1CC1)N1CC1
inactive: dose: 25.0 mg/kg/injection, schedule: Q04DX002 (ip), vehicle: saline with Tween-80 110 % of control | dose: 50.0 mg/kg/injection, schedule: Q01DX Z (ip), vehicle: saline 124 % of control | dose: 50.0 mg/kg/injection, schedule: Q04DX002 (ip), vehicle: saline with Tween-80 103 % of control | dose: 100.0 mg/kg/injection, schedule: Q01DX Z (ip), vehicle: saline 115 % of control | [1] 115 % of control and 116 % of control | [2] 92 % of control

COc1ccc2c(c1)CN(S(=O)(=O)c1ccc(C)cc1)CCC2O (stereo not drawn)
inactive: [3] 96 % of control | [4] 96 % of control | dose: 200.0 mg/kg/injection, schedule: Q01DX009 (ip), vehicle: Klucel (hydroxypropylcellulose) (HPC) 116 % of control | [5] 114 % of control | dose: 400.0 mg/kg/injection, schedule: Q01DX009 (ip), vehicle: Klucel (hydroxypropylcellulose) (HPC) 98 % of control | [6] 96 % of control

Cc1cccc(N)[n+]1CCC(=O)O
inactive: dose: 75.0 mg/kg/injection, schedule: Q04DX003 (ip), vehicle: saline 101 % of control | dose: 150.0 mg/kg/injection, schedule: Q04DX003 (ip), vehicle: saline 94 % of control | dose: 300.0 mg/kg/injection, schedule: Q04DX003 (ip), vehicle: saline 95 % of control

BrCC1=CC(c2ccccc2)(c2ccccc2)c2ccccc21
inactive: [7] 89 % of control | [8] 89 % of control | [9] 87 % of control

COC(=O)c1nc(C(=O)OC)c(C(=O)OC)nc1C(=O)OC
inactive: [7] 88 % of control | [8] 93 % of control | [9] 102 % of control

CC(C(O)c1ccccc1)C(O)(C(F)(F)Cl)C(F)(F)Cl (stereo not drawn)
inactive: dose: 100.0 mg/kg/injection, schedule: Q01DX001 (ip), vehicle: Klucel (hydroxypropylcellulose) (HPC) 102 % of control | [4] 98 % of control | dose: 200.0 mg/kg/injection, schedule: Q01DX001 (ip), vehicle: Klucel (hydroxypropylcellulose) (HPC) 102 % of control | [5] 88 % of control | dose: 400.0 mg/kg/injection, schedule: Q01DX001 (ip), vehicle: Klucel (hydroxypropylcellulose) (HPC) 107 % of control | [6] 114 % of control

COc1ccc(CC[n+]2cccc(C#N)c2)cc1OC
inactive: dose: 75.0 mg/kg/injection, schedule: Q01DX001 (ip), vehicle: carboxymethylcellulose (CMC) 105 % of control | dose: 150.0 mg/kg/injection, schedule: Q01DX001 (ip), vehicle: carboxymethylcellulose (CMC) 100 % of control

CC[Si](CC)(CC)N1CC1
inactive: dose: 12.5 mg/kg/injection, schedule: Q01DX001 (ip), vehicle: carboxymethylcellulose (CMC) 106 % of control | dose: 25.0 mg/kg/injection, schedule: Q01DX001 (ip), vehicle: carboxymethylcellulose (CMC) 92 % of control | dose: 50.0 mg/kg/injection, schedule: Q01DX001 (ip), vehicle: carboxymethylcellulose (CMC) 92 % of control

CCSc1ccc2c(cc1=O)C(NC(=O)NC)CCc1cc(OC)c(OC)c(OC)c1-2 (stereo not drawn)
inactive: dose: 25.0 mg/kg/injection, schedule: Q01DX009 (ip), vehicle: Klucel (hydroxypropylcellulose) (HPC) 116 % of control | dose: 50.0 mg/kg/injection, schedule: Q01DX009 (ip), vehicle: Klucel (hydroxypropylcellulose) (HPC) 112 % of control | [3] 92 % of control

O=c1ccn(C2OC(CF)C(O)C2O)c(=O)[nH]1 (stereo not drawn)
inactive: dose: 100.0 mg/kg/injection, schedule: Q01DX005 (ip), vehicle: saline 104 % of control | [4] 106 % of control | dose: 200.0 mg/kg/injection, schedule: Q01DX005 (ip), vehicle: saline 104 % of control | [5] 110 % of control | [6] 101 % of control

O=c1[nH]c(=O)c2n[nH]nc2[nH]1
inactive: dose: 1.0 mg/kg/injection, schedule: Q01DX009 (ip), vehicle: saline 103 % of control | dose: 2.0 mg/kg/injection, schedule: Q01DX009 (ip), vehicle: saline 93 % of control | dose: 4.0 mg/kg/injection, schedule: Q01DX009 (ip), vehicle: saline 95 % of control | dose: 8.0 mg/kg/injection, schedule: Q01DX009 (ip), vehicle: saline 103 % of control | dose: 16.0 mg/kg/injection, schedule: Q01DX009 (ip), vehicle: saline 101 % of control | dose: 16.0 mg/kg/injection, schedule: Q01DX015 (ip), vehicle: carboxymethylcellulose (CMC) 88 % of control | dose: 75.0 mg/kg/injection, schedule: Q01DX009 (ip), vehicle: saline 110 % of control | dose: 100.0 mg/kg/injection, schedule: Q01DX001 (ip), vehicle: carboxymethylcellulose (CMC) 96 % of control | dose: 115.0 mg/kg/injection, schedule: Q01DX009 (ip), vehicle: saline 107 % of control | dose: 125.0 mg/kg/injection, schedule: Q01DX015 (ip), vehicle: carboxymethylcellulose (CMC) 92 % of control | dose: 170.0 mg/kg/injection, schedule: Q01DX009 (ip), vehicle: saline 98 % of control | dose: 200.0 mg/kg/injection, schedule: Q01DX001 (ip), vehicle: carboxymethylcellulose (CMC) 102 % of control | dose: 255.0 mg/kg/injection, schedule: Q01DX009 (ip), vehicle: saline 97 % of control | dose: 385.0 mg/kg/injection, schedule: Q01DX009 (ip), vehicle: saline 105 % of control | dose: 400.0 mg/kg/injection, schedule: Q01DX001 (ip), vehicle: carboxymethylcellulose (CMC) 91 % of control

CC(Br)C(=O)OCc1ccccc1 (stereo not drawn)
inactive: dose: 100.0 mg/kg/injection, schedule: Q01DX009 (ip), vehicle: saline 91 % of control | dose: 200.0 mg/kg/injection, schedule: Q01DX009 (ip), vehicle: saline 91 % of control | dose: 400.0 mg/kg/injection, schedule: Q01DX009 (ip), vehicle: saline 93 % of control

O=c1[nH]cnc2c(C3OC(CO)C(O)C3O)[nH]nc12 (stereo not drawn)
inactive: dose: 10.0 mg/kg/injection, schedule: Q01DX015 (ip), vehicle: carboxymethylcellulose (CMC) 86 % of control | dose: 20.0 mg/kg/injection, schedule: Q01DX015 (ip), vehicle: carboxymethylcellulose (CMC) 88 % of control

CC(O)CCc1ccccc1O (stereo not drawn)
inactive: [1] 98 % of control | [2] 91 % of control | dose: 400.0 mg/kg/injection, schedule: Q04DX002 (ip), vehicle: saline with Tween-80 98 % of control

CC1(C)CCc2ccccc2C1
inactive: dose: 50.0 mg/kg/injection, schedule: Q01DX009 (ip), vehicle: saline with Tween-80 104 % of control | [10] 96 % of control

CN1c2ccc(Br)c[c]2[Sn]([CH3])([CH3])[c]2cc(Br)ccc21
inactive: dose: 100.0 mg/kg/injection, schedule: Q01DX001 (ip), vehicle: other 96 % of control | dose: 200.0 mg/kg/injection, schedule: Q01DX001 (ip), vehicle: other 97 % of control | dose: 400.0 mg/kg/injection, schedule: Q01DX001 (ip), vehicle: other 92 % of control

CC1CC(C)(C)N=C(c2cccc(Br)c2)O1 (stereo not drawn)
inactive: [10] 103 % of control | dose: 200.0 mg/kg/injection, schedule: Q01DX009 (ip), vehicle: saline with Tween-80 103 % of control | dose: 400.0 mg/kg/injection, schedule: Q01DX009 (ip), vehicle: saline with Tween-80 92 % of control

Cc1ccc[n+]([O-])c1Cl
inactive: dose: 100.0 mg/kg/injection, schedule: Q04DX003 (ip), vehicle: saline 100 % of control | dose: 200.0 mg/kg/injection, schedule: Q04DX003 (ip), vehicle: saline 87 % of control
